Activity calls are given as the source filed them. The calls are words filed in the database; no cut-off is given here.
Experiments:
[1] = biological target: Tyrosine-protein kinase CSK (Homo sapiens, UniProt P41240); assay: Inhibition of CSK (unknown origin) at 10 uM by Ambit Kinomescan binding assay relative to control
[2] = tested on: Epidermal growth factor receptor (Homo sapiens), P00533 [G719C]; assay: Inhibition of EGFR G719C mutant (unknown origin) at 10 uM by Ambit Kinomescan binding assay relative to control
[3] = Inhibition of KHS1 Lys2 labeling site in human A-375 cells at 0.05 uM by KiNativ Profiling analysis relative to control; settings: condition cancer
[4] = biological target: T1, Serine/threonine-protein kinase tousled-like 1 (Homo sapiens) (UniProt Q9UKI8); assay: Inhibition of TLK1 (unknown origin) at 10 uM by Ambit Kinomescan binding assay
T1 sequence (whole entry): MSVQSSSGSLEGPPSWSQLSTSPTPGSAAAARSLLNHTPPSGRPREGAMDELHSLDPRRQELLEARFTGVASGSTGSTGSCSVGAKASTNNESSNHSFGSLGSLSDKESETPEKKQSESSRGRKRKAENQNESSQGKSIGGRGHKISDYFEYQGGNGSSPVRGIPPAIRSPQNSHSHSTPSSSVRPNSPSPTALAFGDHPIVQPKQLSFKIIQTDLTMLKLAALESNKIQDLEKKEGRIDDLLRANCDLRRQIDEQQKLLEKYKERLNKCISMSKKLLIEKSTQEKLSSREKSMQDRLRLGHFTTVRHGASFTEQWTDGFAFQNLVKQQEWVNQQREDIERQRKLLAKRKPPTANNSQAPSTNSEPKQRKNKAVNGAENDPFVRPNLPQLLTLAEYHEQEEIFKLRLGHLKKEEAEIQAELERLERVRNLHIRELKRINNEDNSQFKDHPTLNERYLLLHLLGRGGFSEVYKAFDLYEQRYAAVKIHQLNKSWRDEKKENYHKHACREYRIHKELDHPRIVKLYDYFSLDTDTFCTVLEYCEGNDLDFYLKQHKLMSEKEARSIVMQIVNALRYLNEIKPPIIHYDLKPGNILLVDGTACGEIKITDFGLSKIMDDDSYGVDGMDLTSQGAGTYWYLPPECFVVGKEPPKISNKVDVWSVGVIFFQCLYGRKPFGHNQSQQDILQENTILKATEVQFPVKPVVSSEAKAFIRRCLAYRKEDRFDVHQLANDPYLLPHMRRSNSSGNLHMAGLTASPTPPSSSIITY

[5] = biological target: T2, Serine/threonine-protein kinase D3 (Homo sapiens) (UniProt O94806); assay: Inhibition of PKD3 Lys2 labeling site in human A-375 cells at 0.5 uM by KiNativ Profiling analysis relative to control; assay type: cell-based
T2 sequence (whole entry): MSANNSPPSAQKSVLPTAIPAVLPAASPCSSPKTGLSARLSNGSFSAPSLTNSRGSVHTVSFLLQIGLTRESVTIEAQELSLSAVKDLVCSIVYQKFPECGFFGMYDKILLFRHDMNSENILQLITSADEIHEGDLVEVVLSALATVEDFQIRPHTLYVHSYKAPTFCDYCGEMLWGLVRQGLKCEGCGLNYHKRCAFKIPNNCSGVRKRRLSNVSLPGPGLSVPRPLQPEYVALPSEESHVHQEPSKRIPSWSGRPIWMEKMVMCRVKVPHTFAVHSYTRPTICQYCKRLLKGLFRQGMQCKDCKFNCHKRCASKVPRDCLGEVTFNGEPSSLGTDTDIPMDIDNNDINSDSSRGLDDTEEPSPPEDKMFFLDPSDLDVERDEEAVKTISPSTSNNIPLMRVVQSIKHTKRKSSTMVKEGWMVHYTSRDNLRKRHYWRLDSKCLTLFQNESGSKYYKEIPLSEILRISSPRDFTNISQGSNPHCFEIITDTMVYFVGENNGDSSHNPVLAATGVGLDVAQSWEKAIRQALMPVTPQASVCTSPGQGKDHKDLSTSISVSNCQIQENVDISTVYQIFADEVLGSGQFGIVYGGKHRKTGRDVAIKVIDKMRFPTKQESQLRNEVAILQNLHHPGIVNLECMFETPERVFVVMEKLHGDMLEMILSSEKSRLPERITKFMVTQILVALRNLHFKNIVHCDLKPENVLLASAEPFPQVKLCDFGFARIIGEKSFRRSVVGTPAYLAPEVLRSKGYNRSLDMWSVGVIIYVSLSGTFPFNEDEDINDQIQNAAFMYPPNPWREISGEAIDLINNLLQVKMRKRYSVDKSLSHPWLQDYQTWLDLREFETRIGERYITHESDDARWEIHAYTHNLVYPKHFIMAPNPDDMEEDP

[6] = biological target: T3, Interleukin-1 receptor-associated kinase 4 (Homo sapiens) (UniProt Q9NWZ3); assay: Inhibition of IRAK4 (unknown origin) at 1 uM by Ambit Kinomescan binding assay relative to control
T3 sequence (whole entry): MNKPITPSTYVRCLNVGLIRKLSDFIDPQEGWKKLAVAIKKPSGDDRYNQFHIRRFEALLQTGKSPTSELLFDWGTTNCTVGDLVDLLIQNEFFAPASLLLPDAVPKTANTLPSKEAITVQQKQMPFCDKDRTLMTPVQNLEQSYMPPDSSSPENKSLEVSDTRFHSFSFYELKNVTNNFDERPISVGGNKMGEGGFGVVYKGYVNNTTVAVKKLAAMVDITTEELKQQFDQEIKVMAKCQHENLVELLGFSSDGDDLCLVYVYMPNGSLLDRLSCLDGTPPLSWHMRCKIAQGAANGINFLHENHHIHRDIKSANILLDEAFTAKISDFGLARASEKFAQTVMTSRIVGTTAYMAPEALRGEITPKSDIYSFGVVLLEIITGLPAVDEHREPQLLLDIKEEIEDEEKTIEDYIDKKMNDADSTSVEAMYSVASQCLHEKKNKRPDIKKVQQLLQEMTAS

[7] = biological target: Cyclin-dependent kinase 1 (Homo sapiens) (UniProt P06493); assay: Inhibition of CDC2 Lys2 labeling site harbouring VLHRDLKPQNLLIDDKGTIK in human A-375 cells at 0.5 uM by KiNativ Profiling analysis relative to control; assay type: cell-based
[8] = biological target: Interleukin-1 receptor-associated kinase 1 (Homo sapiens) (UniProt P51617); assay: Inhibition of IRAK1 Lys2 labeling site in human Huh-7 cell lysate at 1 uM by KiNativ Profiling analysis relative to control; assay type: subcellular
Interleukin-1 receptor-associated kinase 1 (Homo sapiens), sequence (P51617 whole entry, looked up): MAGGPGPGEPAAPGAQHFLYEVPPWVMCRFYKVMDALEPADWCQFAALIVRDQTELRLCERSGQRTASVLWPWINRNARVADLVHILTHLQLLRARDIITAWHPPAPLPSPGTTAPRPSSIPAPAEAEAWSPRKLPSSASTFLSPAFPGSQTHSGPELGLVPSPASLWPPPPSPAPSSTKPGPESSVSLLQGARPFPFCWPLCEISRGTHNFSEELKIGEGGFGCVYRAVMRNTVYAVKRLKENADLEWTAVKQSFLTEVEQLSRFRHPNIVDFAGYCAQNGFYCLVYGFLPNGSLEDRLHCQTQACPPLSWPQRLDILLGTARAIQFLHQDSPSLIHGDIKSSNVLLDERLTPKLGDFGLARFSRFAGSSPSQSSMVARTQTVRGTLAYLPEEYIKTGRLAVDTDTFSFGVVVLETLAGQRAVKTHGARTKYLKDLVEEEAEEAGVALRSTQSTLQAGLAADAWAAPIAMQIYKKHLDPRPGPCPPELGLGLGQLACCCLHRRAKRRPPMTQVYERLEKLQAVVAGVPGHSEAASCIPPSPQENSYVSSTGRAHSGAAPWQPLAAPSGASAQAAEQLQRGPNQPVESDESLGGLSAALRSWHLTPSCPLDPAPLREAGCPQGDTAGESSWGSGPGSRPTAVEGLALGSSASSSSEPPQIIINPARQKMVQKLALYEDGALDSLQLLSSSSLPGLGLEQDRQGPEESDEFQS

Epidermal growth factor receptor (Homo sapiens), P00533 [G719C], sequence (P00533 whole entry G719C): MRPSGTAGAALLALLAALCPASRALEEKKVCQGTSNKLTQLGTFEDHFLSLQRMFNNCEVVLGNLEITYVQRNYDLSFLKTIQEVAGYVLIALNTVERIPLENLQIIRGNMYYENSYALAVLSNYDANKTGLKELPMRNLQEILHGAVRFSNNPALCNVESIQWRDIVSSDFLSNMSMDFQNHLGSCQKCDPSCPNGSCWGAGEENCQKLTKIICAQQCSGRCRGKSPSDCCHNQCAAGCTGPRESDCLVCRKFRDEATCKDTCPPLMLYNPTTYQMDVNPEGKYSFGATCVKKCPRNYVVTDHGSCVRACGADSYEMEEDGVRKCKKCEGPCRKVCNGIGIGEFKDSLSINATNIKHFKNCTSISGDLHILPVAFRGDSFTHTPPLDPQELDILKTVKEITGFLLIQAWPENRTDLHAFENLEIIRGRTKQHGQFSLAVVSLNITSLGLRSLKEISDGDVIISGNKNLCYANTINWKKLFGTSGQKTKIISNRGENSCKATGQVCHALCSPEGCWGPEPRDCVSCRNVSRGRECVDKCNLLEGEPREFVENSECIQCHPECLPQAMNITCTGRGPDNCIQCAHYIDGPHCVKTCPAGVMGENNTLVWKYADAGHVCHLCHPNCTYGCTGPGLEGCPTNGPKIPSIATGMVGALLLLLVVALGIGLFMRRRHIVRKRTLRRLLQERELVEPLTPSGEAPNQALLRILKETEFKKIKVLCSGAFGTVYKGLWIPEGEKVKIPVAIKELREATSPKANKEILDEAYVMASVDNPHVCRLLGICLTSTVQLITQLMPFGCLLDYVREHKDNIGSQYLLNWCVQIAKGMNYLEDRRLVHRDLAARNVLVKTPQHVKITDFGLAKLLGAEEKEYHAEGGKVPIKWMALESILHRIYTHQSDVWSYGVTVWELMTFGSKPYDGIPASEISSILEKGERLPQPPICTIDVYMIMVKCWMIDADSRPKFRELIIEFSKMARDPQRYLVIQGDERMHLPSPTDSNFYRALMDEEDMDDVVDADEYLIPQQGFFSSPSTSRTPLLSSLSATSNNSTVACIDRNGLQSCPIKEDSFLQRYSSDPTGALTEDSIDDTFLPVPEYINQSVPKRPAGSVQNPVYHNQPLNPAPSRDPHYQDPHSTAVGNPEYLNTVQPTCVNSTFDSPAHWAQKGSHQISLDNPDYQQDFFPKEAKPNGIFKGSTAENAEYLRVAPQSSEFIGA
Cyclin-dependent kinase 1 (Homo sapiens), sequence (P06493 whole entry, looked up): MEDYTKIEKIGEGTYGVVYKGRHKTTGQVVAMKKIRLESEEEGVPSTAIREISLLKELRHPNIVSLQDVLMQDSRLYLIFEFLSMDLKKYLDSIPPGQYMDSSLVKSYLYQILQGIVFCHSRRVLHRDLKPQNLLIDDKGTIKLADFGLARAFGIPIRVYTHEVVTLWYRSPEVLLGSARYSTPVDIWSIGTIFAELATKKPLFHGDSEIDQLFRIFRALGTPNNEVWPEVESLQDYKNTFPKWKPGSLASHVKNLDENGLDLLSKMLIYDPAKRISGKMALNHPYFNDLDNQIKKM
Tyrosine-protein kinase CSK, sequence (P41240 2-450 limits assumed): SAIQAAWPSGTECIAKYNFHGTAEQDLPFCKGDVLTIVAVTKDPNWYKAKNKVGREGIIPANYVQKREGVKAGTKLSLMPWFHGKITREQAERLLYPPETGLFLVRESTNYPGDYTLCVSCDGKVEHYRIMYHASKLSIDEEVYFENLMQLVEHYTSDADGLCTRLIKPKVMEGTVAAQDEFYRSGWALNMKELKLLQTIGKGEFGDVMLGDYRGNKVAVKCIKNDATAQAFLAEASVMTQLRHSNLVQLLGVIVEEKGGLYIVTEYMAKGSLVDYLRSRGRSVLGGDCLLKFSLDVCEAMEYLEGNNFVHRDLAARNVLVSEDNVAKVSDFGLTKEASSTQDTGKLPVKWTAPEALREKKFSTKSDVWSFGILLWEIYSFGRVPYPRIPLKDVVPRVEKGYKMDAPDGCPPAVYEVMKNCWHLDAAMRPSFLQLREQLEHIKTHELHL

## CCN1CCN(Cc2ccc(NC(=O)c3ccc(C)c(Oc4ccnc5[nH]ccc45)c3)cc2C(F)(F)F)CC1
[1]
  inhibition: 0.45%
[2]
  inhibition: 12%
[3]
  inhibition at 0.05 µM: -15.4%
[4]
  inhibition: inactive

## CCN1CCN(Cc2ccc(NC(=O)c3ccc(C)c(/C=C/c4cnc5[nH]ccc5c4OC)c3)cc2C(F)(F)F)CC1
[5]
  inhibition: -8.8%
[6]
  inhibition: 100%
[7]
  inhibition: 5.8%

## CNc1cc(Oc2cc(C(=O)Nc3cc(N4CCN(C)CC4)cc(C(F)(F)F)c3)ccc2C)ncn1
[8]
  inhibition: -6.9%
